This is an account of results in patent publication US9376442B2, “Methylpyrrolopyrimidinecarboxamides” (Takeda GmbH, priority 2009, dated 2016).

The target in one test is T1, PDE5A1 (Homo sapiens, UniProt O76074).
T1 construct: from tissue; host or cells: human platelets from fresh donor blood (10,000 x g supernatant of sonicated lysate)
As to the kind of experiment: Inhibition of type 5 phosphodiesterase (PDE5) activity, modified SPA test with human platelet lysate. The format is biochemical. The following applies: 0.5 μM cGMP, read-out: PDE5A1 inhibitory values [measured as −log IC50 (mol/l)] (converted). Put shortly:
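Enzyme source is lysate from human platelets (10,000 g supernatant). Compound preincubated 5 min at 37° C in Tris pH 7.4 containing 1 μM motapizone and 10 nM of a PDE2 inhibitor. Reaction started with 0.5 μM cGMP ([3H] tracer) and run 15 min; SPA read-out, IC50 by non-linear regression.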

In a further test the target is T2, PDE4B1 (Homo sapiens, UniProt Q07343).
T2 construct: made in house; host or cells: SF21 insect cells (baculovirus; pCRBac vector), 1000 x g supernatant of homogenate
T2 sequence (Q07343 whole entry): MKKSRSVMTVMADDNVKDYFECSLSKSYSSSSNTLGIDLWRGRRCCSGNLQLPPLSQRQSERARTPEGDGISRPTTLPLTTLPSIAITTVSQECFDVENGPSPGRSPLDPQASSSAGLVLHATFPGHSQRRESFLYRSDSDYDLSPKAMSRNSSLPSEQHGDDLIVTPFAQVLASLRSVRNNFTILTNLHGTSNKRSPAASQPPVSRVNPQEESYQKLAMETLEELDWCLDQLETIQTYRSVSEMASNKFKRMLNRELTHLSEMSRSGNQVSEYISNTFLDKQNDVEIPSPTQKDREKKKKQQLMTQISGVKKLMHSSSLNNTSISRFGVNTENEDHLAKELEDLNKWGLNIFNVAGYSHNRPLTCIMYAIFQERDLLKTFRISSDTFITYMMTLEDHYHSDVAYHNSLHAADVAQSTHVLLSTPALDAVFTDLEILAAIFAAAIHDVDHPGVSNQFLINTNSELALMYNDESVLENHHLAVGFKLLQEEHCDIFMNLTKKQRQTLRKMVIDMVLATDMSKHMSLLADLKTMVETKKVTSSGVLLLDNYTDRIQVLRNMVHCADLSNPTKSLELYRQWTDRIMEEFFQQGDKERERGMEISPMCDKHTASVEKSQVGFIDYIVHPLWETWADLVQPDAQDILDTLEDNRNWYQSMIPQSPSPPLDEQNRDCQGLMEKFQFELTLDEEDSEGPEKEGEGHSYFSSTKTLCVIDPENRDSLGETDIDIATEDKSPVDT
As to the kind of experiment: Inhibition of type 4 phosphodiesterase (PDE4) activity, modified SPA test with recombinant PDE4B1 expressed in SF21 insect cells. It counts as biochemical. The following applies: recombinant PDE4B1, 0.5 μM cAMP, read-out: PDE4B1 inhibitory values [measured as −log IC50 (mol/l)] (converted). A digest of the protocol: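 Modified [3H]cAMP SPA using 1000×g supernatant of SF21 cells expressing recombinant human PDE4B1, in 20 mM Tris pH 7.4, 0.1 mg/ml BSA, 5 mM Mg2+, 0.5 μM cAMP. After 5 min preincubation at 37 °C, 15 min reaction, stopped with SPA beads plus IBMX; IC50 by non-linear regression.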

Bounds are passed on as bounds.

`CCc1ccc(OCC2CC2)c(-c2ncnc3c(C(=O)N[C@H]4CC[C@@H](NC(=O)COC)CC4)c(C)[nH]c23)c1` [Example E153, 4-[2-(Cyclopropylmethoxy)-5-ethylphenyl]-N-{cis-4-[(methoxyacetyl)amino]cyclohexyl}-6-methyl-5H-pyrrolo[3,2-d]pyrimidine-7-carboxamide]: the IC50 on PDE5A1 was below 1 nM; on PDE4B1 it was 100 to 1000 nM.

`CC(=O)N1CCC(NC(=O)c2c(C)[nH]c3c(-c4cc(C(C)C)ccc4OCC4CC4)ncnc23)CC1` [Example E157, N-(1-Acetylpiperidin-4-yl)-4-[2-(cyclopropylmethoxy)-5-(propan-2-yl)phenyl]-6-methyl-5H-pyrrolo[3,2-d]pyrimidine-7-carboxamide]: the IC50 on PDE5A1 was below 1 nM; on PDE4B1, 100 to 1000 nM.

On to `CC(=O)N[C@H]1CC[C@H](NC(=O)c2c(C)[nH]c3c(-c4cc(C(C)C)ccc4OCC4CC4)ncnc23)CC1` [Example E159, N-[trans-4-(Acetylamino)cyclohexyl]-4-[2-(cyclopropylmethoxy)-5-(propan-2-yl)phenyl]-6-methyl-5H-pyrrolo[3,2-d]pyrimidine-7-carboxamide], for which the IC50 on PDE5A1 is below 1 nM; on PDE4B1, 100 to 1000 nM.

On to `COCC(=O)N[C@H]1CC[C@H](NC(=O)c2c(C)[nH]c3c(-c4cc(C(C)C)ccc4OCC4CC4)ncnc23)CC1` [Example E160, 4-[2-(Cyclopropylmethoxy)-5-(propan-2-yl)phenyl]-N-{trans-4-[(methoxyacetyl)amino]cyclohexyl}-6-methyl-5H-pyrrolo[3,2-d]pyrimidine-7-carboxamide], for which the IC50 was below 1 nM at PDE5A1 and 100 to 1000 nM at PDE4B1.

As for `CC(=O)N1CCC(NC(=O)c2c(C)[nH]c3c(-c4cc(C)ccc4OCC4CC4)nc(C)nc23)CC1` [Example E169, N-(1-Acetylpiperidin-4-yl)-4-[2-(cyclopropylmethoxy)-5-methylphenyl]-2,6-dimethyl-5H-pyrrolo[3,2-d]pyrimidine-7-carboxamide], the IC50 is below 1 nM on PDE5A1 and 100 to 1000 nM on PDE4B1.

Regarding `CCC(=O)N1CCC(NC(=O)c2c(C)[nH]c3c(-c4cc(C)ccc4OCC4CC4)nc(C)nc23)CC1` [Example E170, 4-[2-(Cyclopropylmethoxy)-5-methylphenyl]-2,6-dimethyl-N-(1-propanoylpiperidin-4-yl)-5H-pyrrolo[3,2-d]pyrimidine-7-carboxamide], the IC50 is below 1 nM at PDE5A1 and 100 to 1000 nM on PDE4B1.

With `COCC(=O)N1CCC(NC(=O)c2c(C)[nH]c3c(-c4cc(C)ccc4OCC4CC4)nc(C)nc23)CC1` [Example E171, 4-[2-(Cyclopropylmethoxy)-5-methylphenyl]-N-[1-(methoxyacetyl)piperidin-4-yl]-2,6-dimethyl-5H-pyrrolo[3,2-d]pyrimidine-7-carboxamide], the values for the IC50 on PDE5A1 and at PDE4B1 were below 1 nM and 100 to 1000 nM, respectively.

In the case of `Cc1ccc(OCC2CC2)c(-c2ncnc3c(C(=O)N[C@H]4CCC[C@@H]4O)c(C)[nH]c23)c1` [Example E176, 4-[2-(Cyclopropylmethoxy)-5-methylphenyl]-N-[(1S,2S)-2-hydroxycyclopentyl]-6-methyl-5H-pyrrolo[3,2-d]pyrimidine-7-carboxamide], the IC50 on PDE5A1 is below 1 nM; at PDE4B1 it was below 100 nM.

In the case of `Cc1ccc(OCC2CC2)c(-c2ncnc3c(C(=O)N[C@H]4CCC[C@H]4O)c(C)[nH]c23)c1` [Example E177, 4-[2-(Cyclopropylmethoxy)-5-methylphenyl]-N-[(1S,2R)-2-hydroxycyclopentyl]-6-methyl-5H-pyrrolo[3,2-d]pyrimidine-7-carboxamide], the values for the IC50 on PDE5A1 and on PDE4B1 were 1 to 10 nM and 100 to 1000 nM, respectively.

Turning to `Cc1ccc(OCC2CC2)c(-c2ncnc3c(C(=O)N[C@@H]4CCC[C@H]4O)c(C)[nH]c23)c1` [Example E178, 4-[2-(Cyclopropylmethoxy)-5-methylphenyl]-N-[(1R,2R)-2-hydroxycyclopentyl]-6-methyl-5H-pyrrolo[3,2-d]pyrimidine-7-carboxamide], the IC50 is below 1 nM on PDE5A1 and 100 to 1000 nM on PDE4B1.

As to `Cc1[nH]c2c(-c3cc(F)ccc3OCC3CC3)ncnc2c1C(=O)NC1CCN(C(=O)CO)CC1` [Example F23, 4-(2-Cyclopropylmethoxy-5-fluoro-phenyl)-6-methyl-5H-pyrrolo[3,2-d]pyrimidine-7-carboxylic acid [1-(2-hydroxy-acetyl)-piperidin-4-yl]-amide], the IC50 at PDE5A1 was 1 to 10 nM; on PDE4B1 it was 100 to 1000 nM.

Consider `Cc1[nH]c2c(-c3cc(F)ccc3OCC3CC3)ncnc2c1C(=O)NC1CCN(C(=O)[C@H](C)O)CC1` [Example F24, 4-(2-Cyclopropylmethoxy-5-fluoro-phenyl)-6-methyl-5H-pyrrolo[3,2-d]pyrimidine-7-carboxylic acid [1-((S)-2-hydroxy-propionyl)-piperidin-4-yl]-amide], for which the IC50 at PDE5A1 was below 1 nM; on PDE4B1, 100 to 1000 nM.

For `Cc1[nH]c2c(-c3cc(F)ccc3OCC3CC3)ncnc2c1C(=O)N[C@H]1CC[C@H](NC(=O)CO)CC1` [Example F25, 4-[2-(Cyclopropylmethoxy)-5-fluorophenyl]-N-[trans-4-(glycoloylamino)cyclohexyl]-6-methyl-5H-pyrrolo[3,2-d]pyrimidine-7-carboxamide], the IC50 on PDE5A1 is below 1 nM; at PDE4B1, below 100 nM.

For the compound `Cc1[nH]c2c(-c3cc(F)ccc3OCC3CC3)ncnc2c1C(=O)N[C@H]1CC[C@H](NC(=O)[C@H](C)O)CC1` [Example F26, 4-[2-(Cyclopropylmethoxy)-5-fluorophenyl]-N-(trans-4-{[(2S)-2-hydroxypropanoyl]amino}cyclohexyl)-6-methyl-5H-pyrrolo[3,2-d]pyrimidine-7-carboxamide], the values for the IC50 at PDE5A1 and at PDE4B1 were below 1 nM and below 100 nM, respectively.

As for `Cc1[nH]c2c(-c3cc(F)ccc3OCC3CC3)ncnc2c1C(=O)N[C@H]1CC[C@@H](NC(=O)[C@H](C)O)CC1` [Example F27, 4-[2-(Cyclopropylmethoxy)-5-fluorophenyl]-N-(cis-4-{[(2S)-2-hydroxypropanoyl]amino}cyclohexyl)-6-methyl-5H-pyrrolo[3,2-d]pyrimidine-7-carboxamide], the results for the IC50 at PDE5A1 and at PDE4B1 were 1 to 10 nM and 100 to 1000 nM, respectively.

For `COc1ccc(OCC2CC2)c(-c2ncnc3c(C(=O)NC4CCN(C(=O)CO)CC4)c(C)[nH]c23)c1` [Example F41, 4-[2-(Cyclopropylmethoxy)-5-methoxyphenyl]-N-(1-glycoloylpiperidin-4-yl)-6-methyl-5H-pyrrolo[3,2-d]pyrimidine-7-carboxamide], the IC50 at PDE5A1 is below 1 nM; at PDE4B1, 100 to 1000 nM.

In the case of `COc1ccc(OCC2CC2)c(-c2ncnc3c(C(=O)NC4CCN(C(=O)[C@H](C)O)CC4)c(C)[nH]c23)c1` [Example F42, 4-[2-(Cyclopropylmethoxy)-5-methoxyphenyl]-N-{1-[(2S)-2-hydroxypropanoyl]piperidin-4-yl}-6-methyl-5H-pyrrolo[3,2-d]pyrimidine-7-carboxamide], the IC50 at PDE5A1 is below 1 nM; at PDE4B1, 100 to 1000 nM.

Consider `COc1ccc(OCC2CC2)c(-c2ncnc3c(C(=O)N[C@H]4CC[C@H](NC(=O)CO)CC4)c(C)[nH]c23)c1` [Example F43, 4-[2-(Cyclopropylmethoxy)-5-methoxyphenyl]-N-[trans-4-(glycoloylamino)cyclohexyl]-6-methyl-5H-pyrrolo[3,2-d]pyrimidine-7-carboxamide], for which the results for the IC50 at PDE5A1 and on PDE4B1 were below 1 nM and 100 to 1000 nM, respectively.

Consider `COc1ccc(OCC2CC2)c(-c2ncnc3c(C(=O)NC4CCC(NC(=O)C(C)O)CC4)c(C)[nH]c23)c1` (stereo not drawn) [Example F44, 4-[2-(Cyclopropylmethoxy)-5-methoxyphenyl]-N-(trans-4-{[(25)-2-hydroxypropanoyl]amino}cyclohexyl)-6-methyl-5H-pyrrolo[3,2-d]pyrimidine-7-carboxamide], for which the IC50 at PDE5A1 was below 1 nM; at PDE4B1, 100 to 1000 nM.

With `COc1ccc(OCC2CC2)c(-c2ncnc3c(C(=O)N[C@H]4CC[C@@H](NC(=O)CO)CC4)c(C)[nH]c23)c1` [Example F45, 4-[2-(Cyclopropylmethoxy)-5-methoxyphenyl]-N-[cis-4-(glycoloylamino)cyclohexyl]-6-methyl-5H-pyrrolo[3,2-d]pyrimidine-7-carboxamide], the IC50 on PDE5A1 is below 1 nM; at PDE4B1, 100 to 1000 nM.

`COc1ccc(OCC2CC2)c(-c2ncnc3c(C(=O)N[C@H]4CC[C@@H](NC(=O)[C@H](C)O)CC4)c(C)[nH]c23)c1` [Example F46, 4-[2-(cyclopropylmethoxy)-5-methoxyphenyl]-N-(cis-4-{[(2S)-2-hydroxypropanoyl]amino}cyclohexyl)-6-methyl-5H-pyrrolo[3,2-d]pyrimidine-7-carboxamide]: the IC50 on PDE5A1 is below 1 nM; on PDE4B1 it was 100 to 1000 nM.

As to `Cc1ccc(OCC2CC2)c(-c2ncnc3c(C(=O)NC4CCN(C(=O)CO)CC4)c(C)[nH]c23)c1` [Example F51], the IC50 is below 1 nM at PDE5A1 and below 100 nM at PDE4B1.

In the case of `Cc1ccc(OCC2CC2)c(-c2ncnc3c(C(=O)NC4CCN(C(=O)[C@H](C)O)CC4)c(C)[nH]c23)c1` [Example F52, 4-[2-(Cyclopropylmethoxy)-5-methylphenyl]-N-{1-[(2S)-2-hydroxypropanoyl]piperidin-4-yl}-6-methyl-5H-pyrrolo[3,2-d]pyrimidine-7-carboxamide], the IC50 on PDE5A1 is below 1 nM; on PDE4B1 it was below 100 nM.
